Laboratory results published in ChEMBL document CHEMBL4814068, “Synthesis and structure-activity relationships of new chiral spiro-β-lactams highly active against HIV-1 and Plasmodium” (Eur J Med Chem, 2021).

What was measured:
Plasmodium berghei = test: Antiplasmodial activity against hepatic stage of Plasmodium berghei infected in human Huh7 cells assessed as reduction in parasite growth treated 1 hr prior to infection and measured after 48 hrs by firefly luciferase based bioluminescence assay; type: functional, organism-based; conditions: Huh-7
[1] = system: Human immunodeficiency virus 1; test: Antiviral activity against HIV1 SG3.1 infected in human TZM-bl cells measured after 48 hrs by single round viral infectivity assay based Steady-Glo luciferase assay; type: functional, organism-based; conditions: Human immunodeficiency virus 1, SG3.1, TZM-bl; for IC50: 48 h; for IC90: time 48 hrs
[2] = system: Human immunodeficiency virus 1; test: Antiviral activity against HIV1 SG3.1 infected in human TZM-bl cells assessed as inhibition of viral replication at 10 ug/ml measured after 48 hrs by single round viral infectivity assay based Steady-Glo luciferase assay; type: functional; conditions: Human immunodeficiency virus 1, SG3.1, TZM-bl
[3] = Cytotoxicity against human TZM-bl cells assessed as reduction in cell viability by AlamarBlue assay; type: cell-based
Plasmodium falciparum = test: Antiplasmodial activity against blood stage of Plasmodium falciparum NF54 assessed as inhibition of parasite growth measured after […] by SYBR green 1 dye based flow cytometry; type: functional, organism-based
Huh-7 = test: Cytotoxicity against human Huh-7 cells assessed as reduction in cell viability by AlamarBlue assay; type: cell-based
[4] = system: Human immunodeficiency virus 2; test: Antiviral activity against HIV2 03PTHCC19 infected in human TZM-bl cells measured after 48 hrs by single round viral infectivity assay based Steady-Glo luciferase assay; type: functional, organism-based; conditions: Human immunodeficiency virus 2, 03PTHCC19, TZM-bl

SMILES | inhibition at 10 µg/mL [2] [%] | CC50 [3] [µM] | further results
COC(=O)C1CC2(N=N1)C(=O)N1[C@@H](C(=O)OC(c3ccccc3)c3ccccc3)C(C)(C)S[C@@H]12 (some centres undefined) | – | – | IC50 (Plasmodium berghei): < 10 µM; IC50 [1]: 0.012 µM
COC(=O)[C@@H]1N2C(=O)C3(C(C(=O)OCc4ccccc4)=CCC3C(=O)c3ccccc3)[C@H]2SC1(C)C (some centres undefined) | 0 | 55.4 | –
CC1(C)S[C@H]2N(C(=O)C23N=NC(C(=O)OC(c2ccccc2)c2ccccc2)=C3C(=O)OC(c2ccccc2)c2ccccc2)[C@H]1C(=O)OC(c1ccccc1)c1ccccc1 (some centres undefined) | 0 | 33.5 | –
COC(=O)C1=CCC(C(=O)c2ccccc2)C12C(=O)N1[C@@H](C(=O)OC(c3ccccc3)c3ccccc3)C(C)(C)S[C@@H]12 (some centres undefined) | 0 | 54.9 | –
CCOC(=O)C1=CC2(N=N1)C(=O)N1[C@@H](C(=O)OC(c3ccccc3)c3ccccc3)C(C)(C)S[C@@H]12 (some centres undefined) | 0 | 46.9 | –
CC(C)(C)OC(=O)C1=CC2(N=N1)C(=O)N1[C@@H](C(=O)OC(c3ccccc3)c3ccccc3)C(C)(C)S[C@@H]12 (some centres undefined) | 0 | 55.1 | –
CC1(C)S[C@H]2N(C(=O)C23C=C(C(=O)Oc2ccc4ccccc4c2)N=N3)[C@H]1C(=O)O (some centres undefined) | 0 | 68.6 | –
CC1(C)S[C@H]2N(C(=O)C23C=C(C(=O)Oc2ccc4ccccc4c2)N=N3)[C@H]1C(=O)OC(c1ccccc1)c1ccccc1 (some centres undefined) | 0 | 49.1 | –
CC1(C)S[C@H]2N(C(=O)C23C[C@@H]2CN=N[C@]2(C(=O)OCc2ccccc2)C3C(=O)c2ccccc2)[C@H]1C(=O)OC(c1ccccc1)c1ccccc1 (some centres undefined) | 0 | 41.8 | –
CC(C)(C)OC(=O)C1=CCC(C(=O)c2ccccc2)C12C(=O)N1[C@@H](C(=O)OC(c3ccccc3)c3ccccc3)C(C)(C)S[C@@H]12 (some centres undefined) | 0 | 43.2 | –
CCOC(=O)C1=CCC2(C(=O)N3[C@@H](C(=O)OC(c4ccccc4)c4ccccc4)C(C)(C)S[C@@H]32)C1C(=O)c1ccccc1 (some centres undefined) | 99 | 59 | IC50 (Plasmodium falciparum): 0.844 µM; Activity (Huh-7): Non-Toxic; IC50 (Plasmodium berghei): 1.92 µM; IC50 [1]: 0.305 µM; IC90 [1]: 0.479 µM
CCOC(=O)C1=CCC(C(=O)c2ccccc2)C12C(=O)N1[C@@H](C(=O)OC(c3ccccc3)c3ccccc3)C(C)(C)S[C@@H]12 (some centres undefined) | 0 | 57.1 | –
CC1(C)S[C@H]2N(C(=O)C23C(C(=O)OCc2ccccc2)=CCC3C(=O)c2ccccc2)[C@H]1C(=O)O (some centres undefined) | 0 | 56.6 | –
CCOC(=O)C1=CC2(N=N1)C(=O)N1[C@@H](C(=O)O)C(C)(C)S[C@@H]12 (some centres undefined) | 0 | 83.8 | –
CC1(C)S[C@H]2N(C(=O)C23CC=C(C(=O)OCc2ccccc2)C3C(=O)c2ccccc2)[C@H]1C(=O)O (some centres undefined) | 0 | 60.3 | –
COC(=O)C1=CC2(N=N1)C(=O)N1[C@@H](C(=O)OC)C(C)(C)S[C@@H]12 (some centres undefined) | 0 | 89.8 | –
CC1(C)S[C@H]2N(C(=O)C23CC=C(C(=O)OCc2ccccc2)C3C(=O)OCc2ccccc2)[C@H]1C(=O)OC(c1ccccc1)c1ccccc1 (some centres undefined) | 0 | 43.2 | –
CC(=O)C1C(C(=O)OCc2ccccc2)=CCC12C(=O)N1[C@@H](C(=O)OC(c3ccccc3)c3ccccc3)C(C)(C)S[C@@H]12 (some centres undefined) | – | – | IC50 [4]: 0.51 µM; IC50 (Plasmodium berghei): < 5 µM; IC50 [1]: 0.65 µM
CC1(C)S[C@H]2N(C(=O)C23C=C(C(=O)OC(c2ccccc2)c2ccccc2)N=N3)[C@H]1C(=O)OC(c1ccccc1)c1ccccc1 (some centres undefined) | 0 | 54.4 | –
COC(=O)C1=CC2(N=N1)C(=O)N1[C@@H](C(=O)NO)C(C)(C)S[C@@H]12 (some centres undefined) | 0 | 76.8 | –
COC(=O)C1=CCC2(C(=O)N3[C@@H](C(=O)OC(c4ccccc4)c4ccccc4)C(C)(C)S[C@@H]32)C1C(=O)c1ccccc1 (some centres undefined) | 99 | 53.2 | IC50 (Plasmodium falciparum): 1.26 µM; Activity (Huh-7): Non-Toxic; IC50 (Plasmodium berghei): 2.29 µM; IC50 [1]: 0.058 µM; IC90 [1]: 0.233 µM
CC(C)(C)OC(=O)C1=CCC2(C(=O)N3[C@@H](C(=O)OC(c4ccccc4)c4ccccc4)C(C)(C)S[C@@H]32)C1C(=O)c1ccccc1 (some centres undefined) | 0 | 44.4 | –
CC1(C)S[C@H]2N(C(=O)C23C=C(C(=O)O)N=N3)[C@H]1C(=O)O (some centres undefined) | 0 | 101 | –
CC1(C)S[C@H]2N(C(=O)C23CC=C(C(=O)OCc2ccccc2)C3C(=O)c2ccccc2)[C@H]1C(=O)OC(c1ccccc1)c1ccccc1 (some centres undefined) | – | – | IC50 (Plasmodium falciparum): 0.43 µM; IC50 [4]: 0.008 µM; IC50 (Plasmodium berghei): 0.55 µM; IC50 [1]: 0.014 µM
CC1(C)S[C@H]2N(C(=O)C23NN=C(C(=O)OCc2ccccc2)C3C(=O)c2ccccc2)[C@H]1C(=O)OC(c1ccccc1)c1ccccc1 (some centres undefined) | – | 17.2 | –
CC(C)(C)OC(=O)C1=CC2(N=N1)C(=O)N1[C@@H](C(=O)O)C(C)(C)S[C@@H]12 (some centres undefined) | 0 | 79 | –
